From the PolyMetriX glass transition set come the findings set out here.

For `*/C=C/CCCCCCCCCC(CCCCCCCCC*)COCCOCCOCCOCCOCc1ccc2ccc3cccc4ccc1c2c34` (repeat unit), the glass transition temperature is -36.00 °C.
The same measure for `*CC(O)COC(=O)CCCCCCCCCCC(=O)OCC(O)COc1ccc(O*)cc1` (repeat unit): 10.00 °C; for `*CCCC(C)CN1C(=O)c2ccc(C(=O)Oc3ccc4cc(OC(=O)c5ccc6c(c5)C(=O)N(*)C6=O)ccc4c3)cc2C1=O` (repeat unit): 130.00 °C.
The same measure for `*CCCCC(=O)NCc1ccc(CNC(=O)CCCCO*)cc1` (repeat unit): 70.00 °C; for `*CCCCC(=O)NCc1ccc(CNC(=O)CCCCS*)cc1` (repeat unit): 70.00 °C; for `*CCCCC(=O)O*` (repeat unit): -66.00 °C.
For the compound `*CCCCCC(=O)Nc1ccc(Oc2ccc(Oc3ccc(NC(=O)CCCCCN4C(=O)c5ccc(C(=O)c6ccc7c(c6)C(=O)N(*)C7=O)cc5C4=O)cc3)cc2)cc1` (repeat unit), the glass transition temperature is 158.00 °C.
`*CCCCCC(=O)Oc1ccc(OC(=O)CCCCCn2c(=O)c3cc4c(=O)n(*)c(=O)c4cc3c2=O)c(-c2ccccc2)c1` (repeat unit): the glass transition temperature is 82.00 °C.
For `*CCCCCC(=O)Oc1ccc(OC(=O)CCCCCn2c(=O)c3cc4c(=O)n(*)c(=O)c4cc3c2=O)c(Cl)c1` (repeat unit), the glass transition temperature came out at 87.00 °C.
The compound `*CCCCCC(=O)Oc1ccc2ccc(OC(=O)CCCCCn3c(=O)c4cc5c(=O)n(*)c(=O)c5cc4c3=O)cc2c1` (repeat unit) showed a glass transition temperature of 98.00 °C.
The compound `*CCCCCCCCC(Cl)C(*)Cl` (repeat unit) displayed a glass transition temperature of -30.00 °C.
The same measure for `*CCCCCCCCCCC(=O)N(*)C` (repeat unit): -12.00 °C.
Under `*CCCCCCCCCCC(=O)Nc1ccc(Cc2ccc(NC(=O)CCCCCCCCCCN3C(=O)c4ccc(C(=O)c5ccc6c(c5)C(=O)N(*)C6=O)cc4C3=O)cc2)cc1` (repeat unit) stands 136.00 °C.
The same measure for `*CCCCCCCCCCC(=O)Nc1ccc(Oc2ccc(NC(=O)CCCCCCCCCCN3C(=O)c4ccc(C(=O)c5ccc6c(c5)C(=O)N(*)C6=O)cc4C3=O)cc2)cc1` (repeat unit): 132.00 °C; for `*CCCCCCCCCCC(=O)Nc1ccc(Oc2cccc(NC(=O)CCCCCCCCCCN3C(=O)c4ccc(C(=O)c5ccc6c(c5)C(=O)N(*)C6=O)cc4C3=O)c2)cc1` (repeat unit): 126.00 °C.
`*CCCCCCCCCCC(=O)Oc1ccc2cc(OC(=O)CCCCCCCCCCn3c(=O)c4cc5c(=O)n(*)c(=O)c5cc4c3=O)ccc2c1` (repeat unit) gave a glass transition temperature of 66.00 °C.
The same measure for `*CCCCCCCCCCC(Cl)C(*)Cl` (repeat unit): -32.00 °C; for `*CCCCCCCCCCC(c1ccc(O)cc1)C(*)c1ccc(O)cc1C` (repeat unit): -4.00 °C; for `*CCCCCCCCCCCCC(=O)O*` (repeat unit): -36.00 °C.
The same measure for `*CCCCCCCCCCCCC(c1ccc(O)cc1)C(*)c1ccc(O)cc1C` (repeat unit): -1.00 °C; for `*CCCCCCCCCCCCCCC(=O)N*` (repeat unit): -7.00 °C; for `*CCCCCCCCCCCCNC(=O)CCCCCCCCCCCCC(=O)N*` (repeat unit): 49.00 °C.
Under `*CCCCCCCCCCCNC(=O)CCCCCCCCCCCCCCCCCCC(=O)N*` (repeat unit) stands 29.00 °C; under `*CCCCCCCCCCNC(=O)CCCCCCCCCCC(=O)N*` (repeat unit), 49.00 °C; under `*CCCCCCCCCCSS*` (repeat unit), -65.00 °C.
Consider `*CCCCCCCCCCSSS*` (repeat unit), for which the glass transition temperature is -70.00 °C.
Under `*CCCCCCCCCNC(=O)CCCCCCCCCCCCCCCCCCC(=O)N*` (repeat unit) stands 42.00 °C; under `*CCCCCCCCCn1c(=O)c2cc3c(=O)n(*)c(=O)c3cc2c1=O` (repeat unit), 110.00 °C; under `*CCCCCCCNC(=O)CCCCCCCCCCCCCCCCCCC(=O)N*` (repeat unit), 46.00 °C.
The same measure for `*CCCCCCOC(=O)CCCCCCCCCCCCCCCCCCC(=O)OCCCCCCN1C(=O)c2ccc(S(=O)(=O)c3ccc4c(c3)C(=O)N(*)C4=O)cc2C1=O` (repeat unit): 19.00 °C.
The same measure for `*CCCCCNC(=O)CCCCCCCCCCCCCCCCCCC(=O)N*` (repeat unit): 52.00 °C; for `*CCCCCOC(=O)CCCCCCCCCCN1C(=O)c2ccc(-c3ccc(-c4ccc5c(c4)C(=O)N(CCCCCCCCCCC(=O)OCCCCCN4C(=O)c6ccc(-c7ccc8c(c7)C(=O)N(*)C8=O)cc6C4=O)C5=O)cc3)cc2C1=O` (repeat unit): 41.00 °C; for `*CCCCOC(=O)CCCCCCCCCCCCCCCCCCCCCCCCCCCCCCCCCCC(=O)O*` (repeat unit): -55.00 °C.
`*CCCN(*)C(=O)CC` (repeat unit) showed a glass transition temperature of 8.00 °C.
Under `*CCCN(*)C(=O)CCCCC` (repeat unit) stands -16.00 °C; under `*CCCN(*)C(=O)c1ccccc1` (repeat unit), 72.00 °C; under `*CCOC(=O)CCCCCCCCCCC(=O)OCCOC(=O)c1ccc(C(=O)O*)cc1` (repeat unit), -8.00 °C.
In the case of `*CCOCCOC(=O)CCCCCCCCCCCCCCCCC(=O)O*` (repeat unit), the glass transition temperature is -68.00 °C.
As to `*NC1CCC(CCC2CCC(NC(=O)CCCCCCCCCCC(*)=O)CC2)CC1` (repeat unit), the glass transition temperature worked out at 105.00 °C.
Under `*Nc1ccc(Cc2ccc(NC(=O)c3cc(NC(=O)CCCCCCCCCCN4C(=O)c5ccccc5C4=O)cc(C(*)=O)c3)cc2)cc1` (repeat unit) stands 150.00 °C; under `*Nc1ccc(Cc2ccc(NC(=O)c3cc(NC(=O)c4ccncc4)cc(C(*)=O)c3)cc2)cc1` (repeat unit), 302.00 °C; under `*Nc1ccc(NC(=O)c2cc(-c3ccc(C(=O)O)c(C(*)=O)c3)ccc2C(=O)O)cc1` (repeat unit), 248.40 °C.
The same measure for `*Nc1ccc(NC(=O)c2cc(-c3ccc(C(=O)OC)c(C(*)=O)c3)ccc2C(=O)OC)cc1` (repeat unit): 234.20 °C; for `*OC(=O)C(Cc1ccccc1)NC(=O)CCCCCCCCCCC(=O)NC(Cc1ccccc1)C(=O)OC1COC2C(*)COC12` (repeat unit): 76.00 °C; for `*Oc1ccc(-c2ccc(OC(=O)CCCCCCCCCCCCC(*)=O)cc2)cc1` (repeat unit): 95.00 °C.
Under `*Oc1cccc(NC(=O)CCCCCCCCCC(=O)Nc2ccc(*)cc2)c1` (repeat unit) stands 110.00 °C; under `*c1cccc(NC(=O)CCCCCCCCCCC(=O)Nc2cccc(S(*)(=O)=O)c2)c1` (repeat unit), 107.00 °C.
With `*c1nc(-c2ccccc2)nc(N(C)CCCCCCN(*)C)n1` (repeat unit), the glass transition temperature came out at 57.00 °C.
